How the values were obtained:
MDCK 33016PF cells = details: 24 hours; BYF589 1 μM, MEV 100 μM, FTI 0.5 μM, ZA 1 μM, GTI 0.5 μM
IP10 and IFNB1 = format: cell-based
[1] = system: influenza H3N2 strain IVR-165 (A/Victoria/361/2011); format: cell-based
[2] = system: A/Victoria/361/2011 (IVR-165) (high-expressing); test: ambr15 mini-bioreactor and shake flask comparison, A strain; format: cell-based, influenza A H3N2; details: CDM and DM134 media, shake flasks and 15 ml bioreactors
H3N2 strain IVR-165 = format: cell-based, influenza H3N2; details: concentrations as low as 0.05 or even 0.01 μM
B/Massachusetts/02/2012 = test: Ambr 250 mL bioreactor, B strain; format: cell-based, influenza B
Protocol: FIG. 13 provides a graph showing HA yields in the B strain tested with BYF589 at concentrations as indicated.
FIG. 14 provides a graph showing HA yields in the B strain tested with AFZ077 at concentrations as indicated.
The results were confirmed using 3 different viruses (a high-, medium-, and poor-expressing strains). […] To confirm these findings in a larger-scale system, TD Ambr™ 250 mL bioreactors were employed. Both of the lead compounds (as well as DMSO alone as negative control, and, no compound/no DMSO as double-negative control) were tested with a high- and low-expressing strains to determine if the observed enhancement in the small-scale cultures can be reproduced in a larger-scale system. The following parameters were used: Spent DM134:Fresh PFM (1:3); Virus Strains were A/Victoria/361/2011 (IVR-165) and B/Massachusetts/02/2012; MOI was 10^−5 for A/Victoria IVR-165 and 10^−4 for B/Massachusetts; ICD: 2.0e6-3.0e6 cells/mL; N-1 Process: 1B (no Medium Exchange); and, Harvest Time was 65-72 hours post-infection. HA yields were measured by two methods: RP-HPLC and HA-ELISA. […] Note that the error bars represent one standard deviation from the mean, to illustrate variability of the HA-ELISA assay between assay repeats.

For `O=C(O)C[C@H](O)C[C@H](O)/C=C/c1c(C2CC2)nc2ccccc2c1-c1ccc(F)cc1` [Compound G, (3R, 5S, 6E)-7-[2-cyclopropyl-4-(4-fluorophenyl)-quinolin-3-yl)-3,5-dihydroxyhept-6-enoic acid], which “effect on cell viability” value (MDCK 33016PF cells) is on record?
The value was “no negative effect on cell viability”.

And the “delay time of gene induction (measured at peak)” value (IP10 and IFNB1; both genes, versus absence of compound)?
Its value is “at least two hours”.

What about the “induction of IFNb and IP10” value (IP10 and IFNB1; virus-infected MDCK cells, preliminary qRT-PCR data) of the same compound?
Its value is “delayed/suppressed induction”.

What about the “HA yield before the decrease (earlier addition)” value [1] of the same compound?
Its value is “about 20 μg/ml”.

And the “HA yield, compound added 2 hours post infection” value [1]?
The value was “about 5 μg/ml”.

And the “HA yield enhancement, high-expressing A strain” value [2]?
The value was “but not a high-expressing H3N2 strain”.

What about the “increase in HA yield” value (H3N2 strain IVR-165) of the same compound?
Its value is 3 fold.

What about the “effectiveness in increasing protein production yield by concentration” value (B/Massachusetts/02/2012; 5 nM vs 50 nM vs 500 nM) of the same compound?
The value was “more effective in increasing protein production yield at 5 nM than at 50 nM, which in turn was more effective than at 500 nM”.

And the “increase in yield over no DMSO control” value (B/Massachusetts/02/2012; 0.005 μM, HA-HPLC)?
Its value is “about 37%”.

From patent US11897918B2, “Compositions and methods to increase production” (priority 2014, dated 2024)
